{"source": "patent US7423060B2", "about": "“Thiophene hydroxamic acid derivatives and their use as HDAC inhibitors” (Hoffman-La Roche Inc., priority 2004, dated 2008)", "test_system": "HT-29 cells", "assay": "MTT assay on HT-29 human colon carcinoma cell line", "format": "cell-based", "settings": "MTT assay after 5 days, compounds 30 μM to 1.5 nM, read-out: IC90 HT29", "method": "To show the activity of the compounds according to this invention, their effects on a human colon carcinoma cell line was evaluated using a standard MTT-assay. MTT (3-(4,5-dimethylthiazol-2-yl)-2,5-diphenyl tetrazolium bromide) is widely used for the quantitative determination of cytotoxic effects or in vitro chemosensitivity of tumor cells. The assay is based on the cleavage of the yellow tetrazolium salt (MTT) to purple formazan crystals by metabolic active cells. For details, see Rubinstein, L. V., et al., J. Natl. Cancer Inst. 82 (1990) 1113-1118.\nWe proceeded as follows: HT-29 cells (human colon carcinoma cell line, ATCC-No. HTB-38) were cultivated in RPMI 1640 medium with GlutaMAX™ I (Invitrogen, Cat-No. 61870-010), 2.5% fetal calf serum (FCS, Sigma Cat-No. F4135 (FBS)), 2 mM glutamine, 100 units/ml penicillin, 100 μg/ml streptomycin (=Pen/Strep from Invitrogen Cat. No. 15140). For the assay the cells were seeded in 384 well plates, 900 cells per well, in the same medium. At the next day, the compounds (dissolved 10 mM in DMSO) were added in various concentrations ranging from 30 μM to 1.5 nM. After 5 days, the MTT assay was done mainly according to the instructions of the manufacturer (Cell proliferation kit I, MTT, from Roche Molecular Biochemicals). […] After careful mixing, the plates were measured in Victor 2 (scanning multiweil spectrophotometer, Wallac) at 550 nm. […]", "data": [{"smiles": "CC(NC(=O)c1ccc(C(=O)NO)s1)c1ccc(OCc2ccc(OC(F)(F)F)cc2)cc1", "note": "(stereo not shown) [Example 1-1, Thiophene-2,5-dicarboxylic acid 2-hydroxyamide 5-({1-[4-(4-trifluoromethoxy-benzyloxy)-phenyl]-ethyl}-amide)]", "values": [{"measurement": "IC90", "result": 690, "unit": "nM"}]}]}
